# Measured values from US10111435B2, “Herbicidal compositions containing N-(1,3,4-oxadiazol-2-yl)-aryl carboxylic acid amides” (BAYER CROPSCIENCE AKTIENGESELLSCHAFT, priority 2013, dated 2018).
# Key:
# Assay type in all cases: in vivo
# Eleusine indica (ELEIN) = assay: greenhouse post-emergence herbicidal efficacy against ELEIN; details: for pest or weed control at 10 g/ha: 10 g of a.i./ha; for pest or weed control at 40 g/ha: 40 g of a.i./ha
# Method: (§1) All trials whose results are shown were conducted in a greenhouse by the methodology specified below. The effect of the inventive herbicidal compositions was examined on the following harmful plants 14 and 21 days after application:
# (§2) Echinochloa crus-galli (ECHCG), Eleusine indica (ELEIN), Setaria viridis (SETVI), Amaranthus retroflexus (AMARE), Chenopodium album (CHEAL), Kochia scoparia (KCHSC), Solanum nigrum (SOLNI), Avena fatua (AVEFA), Bromus sterilis (BROST), Lolium multiflorum (LOLMU), Phalaris minor (PHAMI), Poa annua (POAAN), Galium aparine (GALAP), Matricaria inodora (MATIN) and Polygonum convolvulus (POLCO).
# (§3) The harmful plant seeds were sown in pots (diameter 8 cm) with sandy loam soil and germinated under optimal conditions. The inventive herbicidal compositions or the active ingredients alone were applied post-emergence to the planted pots with a spray volume of 300 L/ha. The trial was conducted in a greenhouse under optimum growth conditions. The herbicidal effects were assessed visually by comparison of untreated and treated plants. The percentages mean: 0%=no effects, 100%=the plants die off completely). The percentages are used to calculate interactions between individual treatments and combination treatments according to S. R. Colby, Weeds 15, pages 20 to 22 (1967).
# (§4) The abbreviations mean: • a.i.=active ingredient • E^C=expected value according to Colby (E^C=A+B−A×B/100) • Diff: =difference (%) of measured value from expected value (%) (measured value minus expected value)
# (§5) Assessment: • measured value E is greater than E^C:->synergism (+ diff.) • measured value E equals E^C:->additive effect • measured value E is smaller than E^C:->antagonism(− diff.)
# [1] = tested on: Chenopodium album (CHEAL); assay: greenhouse post-emergence herbicidal efficacy against CHEAL
# Method: as §1, §2, §3, §4, §5
# [2] = tested on: Amaranthus retroflexus (AMARE); assay: greenhouse post-emergence herbicidal efficacy against AMARE
# Method: as §1, §2, §3, §4, §5
# DIGSA = assay: greenhouse post-emergence herbicidal efficacy against DIGSA
# Method: as §1, §3, §4, §5
# Setaria viridis (SETVI) = assay: greenhouse post-emergence herbicidal efficacy against SETVI
# Method: as §1, §2, §3, §4, §5
# [3] = tested on: Echinochloa crus-galli (ECHCG); assay: greenhouse post-emergence herbicidal efficacy against ECHCG
# Method: as §1, §2, §3, §4, §5
# Kochia scoparia (KCHSC) = assay: greenhouse post-emergence herbicidal efficacy against KCHSC
# Method: as §1, §2, §3, §4, §5
# Solanum nigrum (SOLNI) = assay: greenhouse post-emergence herbicidal efficacy against SOLNI; details: 21 days after application
# Method: as §1, §2, §3, §4, §5
# [4] = Eleusine indica, post-emergence, 336 h, 14 days after application
# [5] = Eleusine indica, post-emergence, 504 h, 21 days after application
# [6] = 14 days after application, 10 g of a.i./ha
# [7] = 14 days after application, 40 g of a.i./ha
# [8] = 21 days after application, 40 g of a.i./ha
# [9] = 14 days after application, 1 g of a.i./ha
# [10] = 21 days after application, 1 g of a.i./ha
# [11] = 14 days after application, 4 g of a.i./ha
# [12] = 21 days after application, 4 g of a.i./ha
# [13] = 21 days after application, 2 g of a.i./ha
# [14] = 21 days after application, 0.5 g of a.i./ha
# [15] = 21 days after application, 0.25 g of a.i./ha
structure (smiles),measurement,setting,value
COc1c(Cl)ccc(Cl)c1C(=O)O [dicamba],pest or weed control at 10 g/ha,Eleusine indica (ELEIN); [4],10%
same,pest or weed control at 40 g/ha,Eleusine indica (ELEIN); [4],10%
same,pest or weed control at 10 g/ha,Eleusine indica (ELEIN); [5],0%
same,pest or weed control at 40 g/ha,Eleusine indica (ELEIN); [5],0%
same,Efficacy,[1]; [6],50%
same,Efficacy,[2]; [7],65%
same,Efficacy,[2]; [8],65%
same,Efficacy,DIGSA; [7],0%
same,Efficacy,DIGSA; [8],0%
same,Efficacy,Setaria viridis (SETVI); [7],0%
same,Efficacy,Setaria viridis (SETVI); [6],0%
same,Efficacy,"Setaria viridis (SETVI); 21 days after application, 10 g of a.i./ha",0%
same,Efficacy,Setaria viridis (SETVI); [8],0%
COc1cc(OC)nc(NC(=O)NS(=O)(=O)c2cc(NC=O)ccc2C(=O)N(C)C)n1 [foramsulfuron],Efficacy,[3]; [9],60%
same,Efficacy,[3]; [10],30%
same,pest or weed control at 1 g/ha,"Eleusine indica (ELEIN); Eleusine indica, post-emergence, 504 h, 21 days after application, 1 g of a.i./ha",60%
same,Efficacy,Kochia scoparia (KCHSC); [9],80%
same,Efficacy,Kochia scoparia (KCHSC); [11],90%
same,Efficacy,Kochia scoparia (KCHSC); [12],80%
same,Efficacy,[1]; [9],50%
same,Efficacy,DIGSA; [11],40%
same,Efficacy,Setaria viridis (SETVI); [9],40%
same,Efficacy,Setaria viridis (SETVI); [12],50%
same,Efficacy,Setaria viridis (SETVI); [10],20%
COc1c(Cl)ccc(-c2cc(N)c(Cl)c(C(=O)O)n2)c1F [halauxifen],Efficacy,"[3]; 14 days after application, 0.5 g of a.i./ha",0%
same,Efficacy,"[3]; 14 days after application, 2 g of a.i./ha",10%
same,Efficacy,[3]; [13],20%
same,Efficacy,Solanum nigrum (SOLNI); 0.5 g of a.i./ha,50%
same,Efficacy,Eleusine indica (ELEIN); [14],0%
same,Efficacy,Eleusine indica (ELEIN); [13],0%
same,Efficacy,Kochia scoparia (KCHSC); [14],20%
same,Efficacy,Kochia scoparia (KCHSC); [13],30%
same,Efficacy,Setaria viridis (SETVI); [13],0%
COC(=O)c1csc(C)c1S(=O)(=O)NC(=O)n1nc(OC)n(C)c1=O [thiencarbazone-methyl],Efficacy,Solanum nigrum (SOLNI); 1 g of a.i./ha,50%
same,Efficacy,[1]; [15],50%
same,Efficacy,[1]; [10],70%
same,Efficacy,[2]; [15],60%
